The MIC is the lowest concentration found to suppress growth.

Values after ≈ are worked out from the molar mass of the structure shown.

The record followed here is ChEMBL document CHEMBL1133253, “Improved antibacterial activities of coumarin antibiotics bearing 5',5'-dialkylnoviose: biological activity of RU79115” (Bioorg Med Chem Lett, 2000).

The subject of experiment [1] is Staphylococcus aureus. The experiment is described as follows: Tested for in vitro antibacterial activity against Staphylococcus aureus 011 GO64 ofloxacin oxacillin erythromycin resistance phenotype. The class given is functional.
Experiment [2] deals with Staphylococcus aureus. The experiment can be described thus: Tested for in vitro antibacterial activity against Staphylococcus aureus 011 HT3 phenotype. The class given is functional.
Experiment [3] deals with Staphylococcus aureus. The experiment can be described thus: Tested for in vitro antibacterial activity against Staphylococcus aureus 011 HT1 novobiocin resistance phenotype. The class given is functional.
Experiment [4] has as its system Streptococcus pyogenes. The experiment can be described thus: Tested for in vitro antibacterial activity against Streptococcus pyogenes O2A1UC1 phenotype. The class given is functional.
The test system of experiment [5] is Staphylococcus aureus. The experiment is described as follows: IC50 was determined for gyrase B of Staphylococcus aureus against novobiocin (0.5 mg/mL) as reference; IC50nov/IC50comp.
Experiment [6] has as its system Enterococcus faecium. The experiment can be described thus: Tested for in vitro antibacterial activity against Enterococcus faecium 02D31P2 vancomycin teicoplanin erythromycin resistance phenotype. The class given is functional.
Experiment [7] has as its system Staphylococcus epidermidis. The experiment can be described thus: Tested for in vitro antibacterial activity against Staphylococcus epidermidis 012GO42 oxacillin resistance phenotype. In kind it is functional.

Consider `C#CCONC(=O)O[C@H]1[C@@H](O)[C@H](Oc2ccc3c(=O)c(/C(C)=N/OC)c(O)oc3c2C)OC(C)(C)[C@@H]1OC`, for which the minimal inhibitory concentration (MIC) is 0.16 µg/mL (≈ 0.299 µM) in experiment [1]; 0.16 µg/mL (≈ 0.299 µM) in experiment [2]; 5 µg/mL (≈ 9.35 µM) in experiment [3]; 0.6 µg/mL (≈ 1.12 µM) in experiment [4]; 2.5 µg/mL (≈ 4.68 µM) in experiment [6]; 0.08 µg/mL (≈ 0.15 µM) in experiment [7]. The Ratio in experiment [5] is 12.5.
Take `CO[C@@H]1[C@@H](OC(=O)c2ccc(C)[nH]2)[C@@H](O)[C@H](Oc2ccc3c(O)c(NC(=O)c4ccc(O)c(CC=C(C)C)c4)c(=O)oc3c2Cl)OC1(C)C` [CHLOROBIOCIN]: the MIC in experiment [2] is < 0.04 µg/mL; in experiment [3] it was 0.6 µg/mL (≈ 0.861 µM); in experiment [4] it was < 0.04 µg/mL; in experiment [6] it was < 0.04 µg/mL. Further, the Ratio in experiment [5] was found to be 1.7.
